Laboratory results published in PMC8398766, “Do Small Molecules Activate the TrkB Receptor in the Same Manner as BDNF? Limitations of Published TrkB Low Molecular Agonists and Screening for Novel TrkB Orthosteric Agonists” (Pharmaceuticals, 2021).
pKd: −log10 of the molar value. Values after ≈ are worked out from the molar mass of the structure shown. Where two headings read alike, the source gives them in different places.

Tests used:
[1] = target: T1, exTrkB (Homo sapiens, UniProt Q16620); assay: MST binding affinity (Kd) determination
T1 construct: human TrkB receptor (exTrkB), residues 1−430, was cloned into the pCMV2 expression vector; made in house; host or cells: ExpiCHO-S cells
T1 sequence (Q16620 32-430): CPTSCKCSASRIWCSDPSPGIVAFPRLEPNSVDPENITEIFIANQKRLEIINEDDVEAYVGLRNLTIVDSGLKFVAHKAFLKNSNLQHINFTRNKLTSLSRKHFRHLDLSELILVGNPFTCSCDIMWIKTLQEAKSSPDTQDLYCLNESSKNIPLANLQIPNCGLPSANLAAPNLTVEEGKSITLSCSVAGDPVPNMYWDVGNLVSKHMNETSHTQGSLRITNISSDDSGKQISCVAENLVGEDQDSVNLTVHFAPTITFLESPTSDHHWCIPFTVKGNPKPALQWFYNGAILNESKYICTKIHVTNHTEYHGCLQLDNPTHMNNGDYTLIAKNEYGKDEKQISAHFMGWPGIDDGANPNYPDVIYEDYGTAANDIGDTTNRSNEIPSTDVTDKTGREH
Experimental: The gene encoding the extracellular domain of the human TrkB receptor (exTrkB), residues 1−430, was cloned into the pCMV2 expression vector. Protein expression was performed in suspension-cultivated mammalian ExpiCHO-S cells using the ExpiFectamine (Thermo Scientific, Thermo Fisher Scientific, Waltham, MA, USA) transfection reagent. The secreted protein was purified using a four-step protocol. Clarified culture medium was precipitated with ammonium sulfate added to a final concentration of 1.5 M and centrifuged (235,000× g, 60 min at 4 °C). The supernatant after centrifugation was applied on a HiTrap Phenyl column (GE Healthcare, Chicago, IL, USA) equilibrated with buffer A (25 mM Tris, 1 mM DTT; pH 7.5) with 1.5 M ammonium sulfate. Bound proteins were eluted with a linear gradient of buffer A. The eluted proteins were dialyzed overnight in buffer A and loaded on a CaptoQ ImpRes column (GE Healthcare) equilibrated with buffer A with 50 mM NaCl. The bound proteins were eluted with a linear gradient of buffer A with 1 M NaCl. The fractions containing exTrkB protein were pooled, and MnCl2 and CaCl2 (1mM final concentration each) were added. The sample was purified on a HiTrap Con A 4B column (GE Healthcare) equilibrated with buffer B (25 mM Tris, 0.5 M NaCl, 1 mM MnCl2, 1 mM CaCl2; pH 7.5) and eluted with buffer C (25 mM Tris, 0.1 M NaCl, 0.4 M α-D-glucopyranoside; pH 6.5). To improve the protein recovery, buffer C flow was paused nine times during elution. The eluted fractions were concentrated and purified by size-exclusion chromatography on a HiLoad 16/600 Superdex 200 column (GE Healthcare) in buffer A with 0.5 M NaCl. The protein samples were concentrated to 1 mg/mL, and buffer was exchanged (PBS; pH 7.4). Samples were frozen in liquid nitrogen and stored at −80 °C. The protein purity was estimated by SDS–PAGE followed by Coomassie Brilliant Blue staining. The protein concentration was determined from the absorption at 280 nm using an UV NanoDrop 1000 spectrophotometer (Thermo Scientific).
The exTrkB was labeled with a Monolith Protein Labeling Kit RED-NHS 2nd Generation (NanoTemper Technologies GmbH, Munich, Germany) according to the manufacturer’s protocol. The labelling efficiency was always determined spectrophotometrically with NanoPhotometer® NP80 (Impel) in line with the manufacturer’s recommendations. Labelled exTrkB protein was aliquoted and stored at −80 °C to avoid repeated freeze–thaw cycles. Before analysis, the exTrkB protein was thawed on ice and diluted with MST buffer (50 mM Tris pH = 8; 150 mM NaCl; 10 mM MgCl2; 0.1% Tween20) to the desired concentration.
For primary screening (single-point MST experiments for signal amplitude determination), each of the 987 screened compounds were diluted in MST buffer + 0.1% Tween20 to a final concentration of 0.5 mM. The tested compounds were mixed with exTrkB solution (the final concentration of exTrkB was 20 nM) and centrifuged (10,000× g, 4 min at 4 °C) to eliminate protein and compound aggregates. Before loading to capillaries (Monolith NT.115 Capillaries, NanoTemper Technologies GmbH), the samples were incubated for 5 min at 25 °C and then placed into the MST apparatus (Monolith, NanoTemper Technologies GmbH). The experiments were performed using nano-blue excitation, LED light adjusted to 20% excitation power, and MST power set to medium, and the fluorescence signal during thermophoresis was detected after 30 s. Single-point MST experiments were performed by the determination of the amplitude signal between the unbound and bound state between the molecule and exTrkB, which was analyzed using the MO.Control Software version 1.6 (NanoTemper Technologies GmbH). A reference sample containing only exTrkB and the equivalent DMSO concentration (v/v) was included in each individual MST experiment. At least three technical replicates were prepared for each of the tested compounds. A binding affinity study was performed for 113 of the selected compounds at 16 concentration points. […]

[2] = target: T2, TrkB receptor (Rattus norvegicus, UniProt Q63604); assay: ELFI TrkB phosphorylation, orthosteric agonist mode, SN56 T48 cell line; type: cell-based; conditions: 0.125–100 μM, 15 min
T2 construct: host or cells: SN56 T48 cell line
T2 sequence (Q63604 32-821): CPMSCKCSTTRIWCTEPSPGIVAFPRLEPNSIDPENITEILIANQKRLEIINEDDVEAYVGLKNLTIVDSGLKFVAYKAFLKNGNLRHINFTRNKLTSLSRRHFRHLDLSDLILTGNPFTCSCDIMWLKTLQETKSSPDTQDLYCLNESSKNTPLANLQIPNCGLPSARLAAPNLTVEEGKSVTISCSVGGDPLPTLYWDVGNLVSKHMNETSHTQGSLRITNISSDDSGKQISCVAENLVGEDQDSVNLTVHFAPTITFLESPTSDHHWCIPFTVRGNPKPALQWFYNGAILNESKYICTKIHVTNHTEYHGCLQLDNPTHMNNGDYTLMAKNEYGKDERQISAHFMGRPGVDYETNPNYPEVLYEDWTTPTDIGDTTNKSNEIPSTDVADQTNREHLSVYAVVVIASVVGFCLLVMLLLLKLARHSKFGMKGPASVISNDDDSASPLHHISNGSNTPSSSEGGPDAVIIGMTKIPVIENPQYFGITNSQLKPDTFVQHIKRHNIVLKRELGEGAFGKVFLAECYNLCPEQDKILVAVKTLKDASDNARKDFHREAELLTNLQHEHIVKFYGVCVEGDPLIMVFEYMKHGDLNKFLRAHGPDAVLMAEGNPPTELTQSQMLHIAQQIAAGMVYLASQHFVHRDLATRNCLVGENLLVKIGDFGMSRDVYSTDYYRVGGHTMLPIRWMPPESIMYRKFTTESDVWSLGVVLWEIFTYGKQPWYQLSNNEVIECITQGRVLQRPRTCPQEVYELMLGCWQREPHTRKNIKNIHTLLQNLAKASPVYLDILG
Experimental: The SN56 T48 cell line with stable overexpression of the TrkB receptor was purchased from Emory University (Atlanta, GA, USA) and cultivated according to the protocol described in Jang et al., 2010 [12]. The cell lines were cultivated with the following reagents: DMEM High Glucose, fetal bovine serum (FBS), Penicillin-Streptomycin Solution 100×, and Trypsin-EDTA 1×; all were purchased from Biowest, and G418 was from ThermoFisher Scientific. For the ELFI experiments, cells were seeded (8000/well) on a PDL-treated 96-well plate (BioCoat™, Corning Inc., Corning, NY, USA) and 6-well plate (400,000/well) for lysate collection and immunoblot analysis.
In the orthosteric agonist mode experiments, starved cells (5 h) were treated with compounds (0.125–100 μM; volume, 100 μL/well) or BDNF (0.01–10 nM; volume, 100 μL/well) dissolved in culture medium. In the allosteric modulation mode experiments, starved cells (5 h) were treated with final compound concentrations of 3, 10, and 30 μM; volume, 50 μL/well) in the presence of a rising concentration of BDNF (final concentration in well, 0.15–5 nM; volume, 50 μL/well). Corresponding treatment with DMSO (v/v) was performed for a control. Cells were treated for 15 min in both the orthosteric and allosteric modulation mode experiments.
The analysis of TrkB receptor activation was performed using the ELFI method adapted from Boltayev et al. (2017) with some modifications. After compound treatment, experiments were stopped by fixing cells with 10% buffered formalin (Kolchem, Lodz, Poland) for 20 min (volume, 100 μL/well). Afterwards, cells were permeabilized with washing buffer (TBS+ 0.1% Tween20) for 15 min, and endogenous peroxidases were quenched by 20 min of incubation with 1% H2O2 dissolved in TBS (each solution: volume, 100 μL/well). Epitopes were blocked with 10% BSA (Biowest) dissolved in washing buffer for 2 h (volume, 100 μL/well) and incubated with anti-pTrkB (Tyr707) primary antibody (Cell Signaling Technology, Danvers, MA, USA) diluted in washing buffer (1:500; overnight at 4 °C; volume, 100 μL/well). After repeated washing, cells were incubated with HRP-linked anti-rabbit antibody (Cell Signaling Technology) for 2 h (1:1000; RT; volume, 100 μL/well) and washed. The cells were then incubated with 100 μL of ImmunoCruz™ Western Blotting Luminol (Santa Cruz Biotechnology, Dallas, TX, USA) for 1 min in the dark, and the signals were measured using a microplate luminometer (VICTOR Light 1420-060, PerkinElmer®, Waltham, MA, USA). For non-specific binding, cells were treated, with the exception of primary antibody.

[3] = Chemical stability pH 7.4; type: physicochemical; conditions: pH = 7.4, 4 h
[4] = PAMPA; conditions: for PAMPA: 10 μM, 4 h
[5] = system: Caco-2 monolayer; assay: Caco-2 passive permeability; conditions: for Papp,BA: Caco-2, basal to apical; for Papp,BA / Papp,AB: 2 h; for Papp,AB: Caco-2, apical to basal
[6] = Kinetic solubility (shake-flask); conditions: pH 7.4, 4 h, 25 °C
[7] = Metabolic stability in human liver microsomes; conditions: for Clint HLM: 1 μM, phase I; for Metabolic stability in HLM (classification): compared with verapamil
[8] = Metabolic stability in mouse liver microsomes; conditions: for Metabolic stability in MLM (classification): compared with verapamil; for Clint MLM: 1 μM, phase I
[9] = physchem; conditions: 25 °C, pH 7.4, aqueous buffer, kinetic from dmso stock
[10] = Caco-2 passive permeability; conditions: human, Caco-2, with 5 μM elacridar and 20 μM cyclosporine A
[11] = target: extracellular domain of the human TrkB receptor (exTrkB), residues 1-430 (human) (UniProt Q16620)
Sequence of extracellular domain of the human TrkB receptor (exTrkB), residues 1-430 (human) (Q16620 32-430): as the sequence (Q16620 32-430) above

[12] = target: extracellular domain of the human TrkB receptor (exTrkB), residues 1-430 (human) (UniProt Q16620); assay: MST; exTrkB labelled with RED-NHS, 20 nM; ligand titrated at 16 concentration points; MST buffer (50 mM Tris pH 8, 150 mM NaCl, 10 mM MgCl2, 0.1% Tween20); 5 min at 25 °C before loading; Kd binding model
[13] = pH 7.4

Compound	Binding to the exTrkB receptor [1]	Orthosteric activity (induction of TrkB phosphorylation) [2]	Chemical Stability [% of Degradation] [3]	PAMPA [4]	Papp,BA [5]	Kinetic Solubility [6] [µM]	Clint HLM [7] [μL·min^−1·mgprotein^−1]	Metabolic stability in HLM (classification) [7]	Metabolic stability in MLM (classification) [8]	Papp,AB [5]	Clint MLM [8] [μL·min^−1·mgprotein^−1]	Kinetic Solubility [13] [µM]	other results
O=C(NCCO)c1cc(C(=O)NCCO)cc(C(=O)NCCO)c1 [LM22-A4]	not observed	did not observe any orthosteric activity	Stable	0.01 10^−6·cm/s	0.12 10^−6·cm/s	397	3.7	very good metabolic stability	very good metabolic stability				
O=c1cc(-c2cccc(O)c2)oc2c(O)c(O)ccc12 [7,8,3′-THF, 7,8,3′-trihydroxyflavone]	not observed	did not observe any orthosteric activity	Stable					moderate degradation rate	moderate degradation rate				Papp at 4 h, 10 μM ([4]; PAMPA, pH 7.4): 1.1 ×10⁻⁶ cm/s; solubility kinetic at 4 h [9]: 168 µM (≈ 45.4 µg/mL); Papp A→B at 2 h [10]: 3 ×10⁻⁶ cm/s; Papp B→A at 2 h [10]: 11.1 ×10⁻⁶ cm/s; microsomal CLint at 1 μM ([7]; human, liver microsomes): 49.4 µL/min/mg; microsomal CLint at 1 μM ([8]; mouse, liver microsomes): 26.6 µL/min/mg
CC(=O)NCCc1c[nH]c2ccc(O)cc12 [NAS, N-acetylserotonin]	not observed	did not observe any orthosteric activity	Stable	<0.01 10^−6·cm/s	8.00 10^−6·cm/s	404	0.3	very good metabolic stability	very good metabolic stability	8.86 10^−6·cm/s	1.5		
Brain-derived neurotrophic factor (ligand)													EC50 of TrkB phosphorylation (Y706) by enzyme-linked fixed-cell immunoassay (ELFI) in SN56 T48 cells overexpressing TrkB; BDNF 0.01-10 nM, 15 min [11]: 0.004 µM; pKd [12]: 7.03
CC(C)CCNc1ncccc1C(=O)N1CCN(Cc2ccccc2)CC1 [NSI-189]	not observed	did not observe any orthosteric activity	0.65%	8.91 10^−6·cm/s	13.22 10^−6·cm/s		466.6	highly unstable	highly unstable	28.23 10^−6·cm/s	1316.7	500	Permeability in PAMPA assay (good permeability) [4]: > 10^−6 cm/s; Permeability in Caco-2 system (good permeability) [5]: > 10^−6 cm/s
O=C1NCCCC1C(=O)NCCc1c[nH]c2ccc(O)cc12 (centres unmarked) [HIOC]	not observed	did not observe any orthosteric activity	Stable	1.24 10^−6·cm/s	2.29 10^−6·cm/s			very good metabolic stability	very good metabolic stability	1.11 10^−6·cm/s	2.1	437	
